In one experiment the test system is estradiol. As to the kind of experiment: Plasma estradiol concentration in male dogs. To be noted: for plasma estradiol concentration: single intravenous dose of approximately 26 umoles/kg. Type of experiment: in vivo. From the text: (§1) This effect was reversible and was associated with a reduction in serum concentration of luteinizing hormone (LH).
The next experiment relates to cortisol. Nature of the experiment: Plasma cortisol concentration in male dogs. In kind it is in vivo. The conditions noted are these: for plasma cortisol concentration: single intravenous dose of approximately 26 umoles/kg.
Text: as §1

In experiment [1] the test system is testosterone. Nature of the experiment: Serum/plasma testosterone concentration in male dogs after oral or intravenous dosing. In kind it is in vivo. The conditions noted are these: for plasma concentration of testosterone: single intravenous dose of approximately 26 umoles/kg.
The subject of experiment [2] is testosterone. As to the kind of experiment: Plasma testosterone concentration in male rats after oral dosing. In kind it is in vivo. The conditions noted are these: for plasma testosterone concentration: four daily oral doses ≥100 mg/kg, 4 hours after the last dose. The procedure:
(§2) Four daily oral doses ≥100 mg/kg (S)-(-)-N-(α-Ethylbenzyl)-3-(3-carboxy)propoxy-2-phenylquinoline-4-carboxamide or (S)-(-)-N-(α-Ethylbenzyl)-3-carboxymethoxy-2-phenylquinoline-4-carboxamide reduced the plasma testosterone concentration of male rats when measured at 4 hours after the last dose. […] Reductions in plasma testosterone also occurred in male rats following single oral doses of 30 to 1000 mg/kg (S)-(-)-N-(α-Ethylbenzyl)-3-carboxymethoxy-2-phenylquinoline-4-carboxamide. Stimulation of testosterone production in vivo by a LH agonist (human chorionic gonadotropin) was not blocked by a single oral dose of 1000 mg/kg (S)-(-)-N-(α-Ethylbenzyl)-3-carboxymethoxy-2-phenylquinoline-4-carboxamide in male rats.

The test system of another experiment is testosterone production. Nature of the experiment: Stimulation of testosterone production in vivo by a LH agonist (human chorionic gonadotropin) in male rats. The conditions noted are these: single oral dose of 1000 mg/kg. The method, then: as §2
For a further experiment, the system named is LH. Nature of the experiment: Plasma LH concentration in male rats after oral dosing. The conditions noted are these: four daily oral doses of 300 mg/kg, 4 hours after the last dose. In kind it is in vivo. The method, then:
as §2

The next experiment has as its target T1, CYP17A1 (Canis lupus familiaris, UniProt A0A8I3PR85).
T1 construct: using lysed dog Leydig cells; from tissue; host or cells: lysate of primary Leydig cells isolated from dog testes
T1 sequence (A0A8I3PR85 19-509): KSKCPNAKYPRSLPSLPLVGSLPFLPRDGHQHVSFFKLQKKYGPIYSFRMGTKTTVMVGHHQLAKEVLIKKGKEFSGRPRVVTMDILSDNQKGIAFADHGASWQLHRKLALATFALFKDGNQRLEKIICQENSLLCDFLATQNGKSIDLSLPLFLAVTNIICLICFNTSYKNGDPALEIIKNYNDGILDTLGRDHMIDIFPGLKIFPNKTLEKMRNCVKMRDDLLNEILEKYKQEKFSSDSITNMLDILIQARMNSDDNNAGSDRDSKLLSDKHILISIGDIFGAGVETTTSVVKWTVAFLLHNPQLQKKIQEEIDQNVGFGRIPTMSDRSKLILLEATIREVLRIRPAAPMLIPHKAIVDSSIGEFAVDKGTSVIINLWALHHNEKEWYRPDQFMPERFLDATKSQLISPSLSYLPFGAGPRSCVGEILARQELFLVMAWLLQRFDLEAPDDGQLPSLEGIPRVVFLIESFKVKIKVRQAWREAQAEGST
Nature of the experiment: Enzyme inhibition in lysed dog Leydig cells. Type of experiment: biochemical. The method, then: This effect occurred at incubation concentrations between 10 and 100 uM. […] Neither (S)-(-)-N-(α-Ethylbenzyl)-3-carboxymethoxy-2-phenylquinoline-4-carboxamide nor (S)-(-)-N-(α-Ethylbenzyl)-3-(3-carboxy)propoxy-2-phenylquinoline-4-carboxamide inhibited testosterone synthesis in Leydig cells isolated from the testis of the rat at the highest incubation concentration tested (300 uM). In contrast, (+)-(R)-3-[3-(4-Phenyl-4-N-methylacetamidopiperidin-1-yl)propyl]-3-(3,4-dichlorophenyl)-1-benzoylpiperidine, and (S)-(-)-N-(α-Ethylbenzyl)-3-[(4-methylpiperazin-1-yl)methyl]-2-phenylquinoline-4-carboxamide inhibited testosterone synthesis of isolated rat Leydig cells at incubation concentrations between 3 and 300 uM.

For another experiment, the system named is luteinizing hormone (LH). As to the kind of experiment: Serum luteinizing hormone concentration in male dogs. The conditions noted are these: single oral dose of 300 mg/kg. In kind it is in vivo.
Text: as §1

The test system of the next experiment is testes and prostate. Nature of the experiment: Once daily oral administration for 1 month, reproductive organ effects in male beagle dogs. Type of experiment: in vivo. The procedure:
Once daily oral administration of ((S)-(-)-N-(α-Ethylbenzyl)-3-hydroxy-2-phenylquinoline-4-carboxamide) for 1 month to sexually mature male beagle dogs (12 - 16 months of age) produced decreases in the size and/or weight of testes and prostate. […] The incidence and severity of these changes were dose-related with 1 of 3, 2 of 3, 2 of 3, 6 of 6 and 3 of 3 male dogs affected at doses of 0.3, 3, 30, 300 or 1000 mg/kg per day, respectively.

For experiment [3], the system named is testosterone. Nature of the experiment: Serum/plasma testosterone concentration in male dogs after oral or intravenous dosing. Type of experiment: in vivo. The procedure: The ((S)-(-)-N-(α-Ethylbenzyl)-3-hydroxy-2-phenylquinoline-4-carboxamide)-dependent changes in the testes and prostate of male dogs were associated with reductions in serum concentration of testosterone. Testosterone concentrations were reduced after either a single oral dose of 300 mg/kg (3 of 3 dogs) or 25 daily oral doses of 0.3 (1 of 3 dogs), 3 (2 of 3 dogs) or 300 mg/kg ((S)-(-)-N-(α-Ethylbenzyl)-3-hydroxy-2-phenylquinoline-4-carboxamide) (3 of 3 dogs). Serum testosterone was measured on blood samples obtained every 2 hours for 24 hours after the single dose and every 20 minutes for 4 hours beginning approximately 2 hours after the last of the 25 daily doses. The reductions in serum testosterone observed after one or 25 daily doses of 300 mg/kg ((S)-(-)-N-(α-Ethylbenzyl)-3-hydroxy-2-phenylquinoline-4-carboxamide) were reversible in all dogs (6 of 6) within one week after the cessation of dosing.
as §1

Experiment [4] concerns reproductive organs. As to the kind of experiment: Once daily oral administration for 2 weeks, reproductive organ effects in male mice. Type of experiment: in vivo. The conditions noted are these: 0.1 to 1000 mg/kg per day. The procedure:
(§3) Once daily oral administration of ((S)-(-)-N-(α-Ethylbenzyl)-3-hydroxy-2-phenylquinoline-4-carboxamide) for 1 month to male rats or for 2 weeks to male mice had no effect on the weights and/or histologic appearance of the reproductive organs. The daily doses ranged from 0.1 to 1000 mg/kg per day.

In experiment [5] the test system is reproductive organs. As to the kind of experiment: Once daily oral administration for 1 month, reproductive organ effects in male rats. The conditions noted are these: 0.1 to 1000 mg/kg per day. In kind it is in vivo. The procedure: as §3
The subject of another experiment is androstenedione. Nature of the experiment: Plasma androstenedione concentration in male dogs. In kind it is in vivo. The conditions noted are these: single oral dose of 300 mg/kg.
Text: as §1

[6] abbreviates: once daily oral, 1 month, male beagle dogs.
The mark [7] stands for this setting: single oral dose of 300 mg/kg, male dogs.

For the compound `CC(=O)N(C)C1(c2ccccc2)CCN(CCC[C@]2(c3ccc(Cl)c(Cl)c3)CCCN(C(=O)c3ccccc3)C2)CC1` [(+)-(R)-3-[3-(4-Phenyl-4-N-methylacetamidopiperidin-1-yl)propyl]-3-(3,4-dichlorophenyl)-1-benzoylpiperidine], in the experiment with estradiol, the plasma estradiol concentration entry is “no effect”. Moreover, the plasma cortisol concentration result in the experiment on cortisol was “did not lower”. For the same compound, the “plasma concentration of testosterone” value in the experiment with testosterone [1] is recorded as “reduced”.

Regarding `CC[C@H](NC(=O)c1c(OCCCC(=O)O)c(-c2ccccc2)nc2ccccc12)c1ccccc1` [(S)-(-)-N-(α-Ethylbenzyl)-3-(3-carboxy)propoxy-2-phenylquinoline-4-carboxamide], the plasma testosterone concentration entry in the experiment on testosterone [2] is “reduced”.

Take `CC[C@H](NC(=O)c1c(OCCCN2CCN(c3ccccc3OC)CC2)c(-c2ccccc2)nc2ccccc12)c1ccccc1` [(S)-(-)-N-(α-Ethylbenzyl)-3-[3-[4-(2-methoxyphenyl)piperazin-1-yl]propoxy]-2-phenylquinoline-4-carboxamide]: in the experiment with estradiol, the plasma estradiol concentration result was “no effect”. In the experiment on cortisol, the plasma cortisol concentration result is given as “did not lower”. Besides, the “plasma concentration of testosterone” value in the experiment with testosterone [1] is “reduced”.

As for `CC[C@H](NC(=O)c1c(OCC(=O)O)c(-c2ccccc2)nc2ccccc12)c1ccccc1` [(S)-(-)-N-(α-Ethylbenzyl)-3-carboxymethoxy-2-phenylquinoline-4-carboxamide], in the experiment on testosterone production, the “stimulation of testosterone production in vivo by a LH agonist (human chorionic gonadotropin)” value is recorded as “not blocked”. The plasma testosterone concentration entry in the experiment on testosterone [2] is “reduced”. In the experiment on testosterone [2] (single oral doses of 30 to 1000 mg/kg), the plasma testosterone result is listed as “Reductions”. In addition, the “plasma concentration of testosterone” value with testosterone [1] was “reduced”. Moreover, the “plasma LH concentration” value in the experiment on LH is reported as “reduced”.

In the case of `CC[C@H](NC(=O)c1c(O)c(-c2ccccc2)nc2ccccc12)c1ccccc1` [(S)-(-)-N-(α-Ethylbenzyl)-3-hydroxy-2-phenylquinoline-4-carboxamide], the “plasma concentration of estradiol” value in the experiment on estradiol (single oral dose of 300 mg/kg) was “no effect”. For the same compound, the “inhibition of the enzyme (CYP17A1) in the testosterone synthetic pathway” value at CYP17A1 is on record as “inhibition”. Also, in the experiment with luteinizing hormone (LH), the “serum concentration of luteinizing hormone (LH)” value is “reduction”. Moreover, the “male dogs affected (testes and prostate changes)” value is given as 1 of 3 with testes and prostate (0.3 mg/kg per day oral, 1 month); 2 of 3 with testes and prostate (3 mg/kg per day oral, 1 month); 2 of 3 in the experiment with testes and prostate (30 mg/kg per day oral, 1 month); 6 of 6 in the experiment with testes and prostate (300 mg/kg per day oral, 1 month); 3 of 3 in the experiment on testes and prostate (1000 mg/kg per day oral, 1 month). Moreover, the “reversibility of testes and prostate changes” value in the experiment with testes and prostate (male beagle dogs) is recorded as “demonstrated”. For the same compound, the “histologic evaluation of prostate” value in the experiment on testes and prostate (setting [6]) is listed as “diffuse atrophy of the prostate gland”. Further, the “histologic evaluation of testes” value with testes and prostate (setting [6]) was “degeneration of the seminiferous epithelium of the testes with depletion of spermatogonia, spermatocytes and spermatids”. Moreover, the “size and/or weight of testes and prostate” value with testes and prostate (once daily oral, 1 month, sexually mature male beagle dogs) is listed as “decreases”. In addition, the “dogs with reduced serum testosterone concentration” value is given as 1 of 3 in the experiment with testosterone [3] (25 daily oral doses of 0.3 mg/kg), 2 of 3 in the experiment with testosterone [3] (25 daily oral doses of 3 mg/kg), 3 of 3 in the experiment on testosterone [3] (25 daily oral doses of 300 mg/kg) and 3 of 3 in the experiment on testosterone [3] (single oral dose of 300 mg/kg). Moreover, the “dogs in which reductions in serum testosterone were reversible” value in the experiment on testosterone [3] (after one or 25 daily doses of 300 mg/kg, within one week after cessation of dosing) is 6 of 6. In the experiment on testosterone [3] (setting [7]), the “reversibility of decrease in serum testosterone” value was “reversible”. In addition, the “serum concentration of testosterone” value in the experiment on testosterone [3] (setting [7]) was “rapid and marked decrease”. Besides, the “weights and/or histologic appearance of the reproductive organs” value in the experiment on reproductive organs [4] and in the experiment with reproductive organs [5] was “no effect” each time. The “plasma concentration of cortisol” value with cortisol (single oral dose of 300 mg/kg) is recorded as “no effect”. Also, in the experiment with testosterone [1], the “plasma concentration of testosterone” value is “reduced”. The “duration of decrease in serum testosterone” value with testosterone [1] (single oral dose of 300 mg/kg, post-dose) is reported as “at least 24 hours”. For the same compound, the “plasma concentration of androstenedione” value with androstenedione was “reduced”.
